The record followed here is ChEMBL document CHEMBL1201862, “PubChem BioAssay data set” (2004).

SMILES strings stand for the structures.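 1) Cells in 96-well plates. 2) Compound, 48 h, 5 concentrations. 3) Linear interpolation between surrounding doses. 4) Unreached endpoint = highest concentration. At the GI50, growth is halved.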 The source made the active and inactive calls. Cut-off read from the data, not from the text of the source: active = GI50 up to about 1.1 µM and inactive = higher. A value given as a limit tells only on which side of the number the result lay.

Some test systems named below: HT-29; SF-539; BT-549; MDA-MB-231; HOP-92; M14; NCI-H23; HCT-116; LOX IMVI; Malme-3M; PC-3; A549; CAKI-1; MCF7; KM12; NCI-H226; OVCAR-5; COLO 205; DU-145; SF-268.
Holding throughout (experiment): NCI-60 cell line screen, 48 h

Consider `CCOC(=O)CCc1c(C(=O)OCC)[nH]c(/C=C2/NC(=O)C(C)=C2CC)c1C`, for which the GI50 in the assay with HT-29 was 10.4 µM (inactive); in the assay with SF-539, 19.5 µM (inactive); in the assay with BT-549, 1.61 µM (inactive); in the assay on MDA-MB-231 it was 13.6 µM (inactive); with HOP-92 it was 14.1 µM (inactive); in the assay on M14, 7.28 µM (inactive). Also, the GI50 in the assay with NCI-H23 was 2.24 µM (inactive); in the assay with HCT-116 it was 13.1 µM (inactive); with LOX IMVI, 8.18 µM (inactive); in the assay with Malme-3M, 13 µM (inactive); in the assay with PC-3, 22.1 µM (inactive); in the assay on A549, 24.3 µM (inactive). Also, the GI50 was 21.2 µM (inactive) in the assay with CAKI-1; 5 µM (inactive) in the assay with MCF7; 10.9 µM (inactive) in the assay with KM12; 16.9 µM (inactive) in the assay on NCI-H226; 29.5 µM (inactive) in the assay on OVCAR-5; 14 µM (inactive) in the assay on COLO 205. For the same compound, the figures for the GI50 in the assay with DU-145 and in the assay on SF-268 were 16.9 µM (inactive) and 10.2 µM (inactive), respectively.

As to `CC(C)[Si]1(C(C)C)OCC2OC(n3c(C(=O)c4ccccc4)cc(=O)[nH]c3=O)CC2O[Si](C(C)C)(C(C)C)O1` (stereo not given), the GI50 is 1.9 µM (inactive) with HT-29; 2.88 µM (inactive) with SF-539; 4.69 µM (inactive) in the assay on BT-549; 2.37 µM (inactive) in the assay on MDA-MB-231; 2.33 µM (inactive) in the assay on HOP-92; 3.66 µM (inactive) with M14. Further, the GI50 with NCI-H23 is 2.52 µM (inactive); in the assay with HCT-116 it was 3.15 µM (inactive); in the assay on LOX IMVI, 2 µM (inactive); in the assay with Malme-3M it was 3.75 µM (inactive); in the assay with PC-3, 2.2 µM (inactive); with A549 it was 7.28 µM (inactive). Besides, the GI50 was 5.53 µM (inactive) with CAKI-1; 2.94 µM (inactive) with MCF7; 2.31 µM (inactive) in the assay with KM12; 2.94 µM (inactive) in the assay on NCI-H226; 3.4 µM (inactive) in the assay on OVCAR-5; 3.72 µM (inactive) in the assay with COLO 205. Besides, the GI50 in the assay with DU-145 was 11.6 µM (inactive); with SF-268, 2.78 µM (inactive).

With `Cn1cncc1CC1COC(=O)C1C(O)c1ccccc1` (stereo not given), the GI50 in the assay on HT-29, with SF-539, with BT-549, in the assay with MDA-MB-231, with HOP-92 and with M14 was > 100 µM (inactive) in each case. In addition, the GI50 in the assay with NCI-H23, in the assay on HCT-116, in the assay on LOX IMVI, in the assay with Malme-3M, in the assay on PC-3 and with A549 was > 100 µM (inactive) in each case. The GI50 in the assay with CAKI-1, in the assay on MCF7, in the assay on KM12, with NCI-H226, in the assay with OVCAR-5 and in the assay with COLO 205 was > 100 µM (inactive) each time. The GI50 in the assay on DU-145 and in the assay with SF-268 was > 100 µM (inactive) in each case.

Regarding `Cc1c(S(=O)(=O)/N=C(\NN)Nc2ccc(Cl)cc2)sc2ccc(Cl)cc12`, the GI50 in the assay on HT-29 was 16.6 µM (inactive); in the assay on SF-539, 14.3 µM (inactive); in the assay on BT-549, 16.7 µM (inactive); in the assay with MDA-MB-231, 16.5 µM (inactive); in the assay on HOP-92 it was 15.1 µM (inactive); in the assay on M14 it was 20.5 µM (inactive). Moreover, the GI50 is 17.7 µM (inactive) in the assay with NCI-H23; 13.3 µM (inactive) with HCT-116; 18.6 µM (inactive) in the assay on LOX IMVI; 22.3 µM (inactive) in the assay with Malme-3M; 15.5 µM (inactive) in the assay with PC-3; 16.9 µM (inactive) in the assay with A549. Also, the GI50 in the assay with CAKI-1 was 19 µM (inactive); in the assay on MCF7 it was 14.9 µM (inactive); in the assay with KM12, 15.3 µM (inactive); in the assay on NCI-H226, 20 µM (inactive); in the assay on OVCAR-5 it was 14.4 µM (inactive); in the assay with COLO 205, 16.3 µM (inactive). Moreover, the GI50 is 16.9 µM (inactive) in the assay on DU-145 and 18.8 µM (inactive) in the assay on SF-268.

In the case of `CNC(=O)[C@H](Cc1ccccc1)NC(=O)N(CCC#N)CCN(C(=O)N[C@@H](Cc1ccccc1)C(=O)OC)c1ccccc1`, the GI50 in the assay with HT-29, with SF-539, in the assay on BT-549, in the assay on MDA-MB-231, with HOP-92 and in the assay with M14 was > 100 µM (inactive) throughout. Further, the GI50 in the assay with NCI-H23, in the assay with HCT-116, with LOX IMVI, in the assay with Malme-3M, in the assay on PC-3 and in the assay with A549 was > 100 µM (inactive) throughout. The GI50 was > 100 µM (inactive) in the assay on CAKI-1; 15.7 µM (inactive) with MCF7; > 100 µM (inactive) in the assay on KM12; > 100 µM (inactive) in the assay on NCI-H226; > 100 µM (inactive) with OVCAR-5; > 100 µM (inactive) in the assay on COLO 205. Also, the GI50 in the assay on DU-145 and in the assay on SF-268 was > 100 µM (inactive) each time.

For the compound `Cc1n[nH]c(=O)n1/N=C\CC/C=N\n1c(C)n[nH]c1=O`, the GI50 in the assay on HT-29, in the assay with SF-539, with BT-549, with MDA-MB-231, in the assay with HOP-92 and in the assay on M14 was > 100 µM (inactive) in each case. Also, the GI50 in the assay with NCI-H23, in the assay on HCT-116, in the assay on LOX IMVI, in the assay on Malme-3M, in the assay with PC-3 and in the assay on A549 was > 100 µM (inactive) each time. Further, the GI50 in the assay on CAKI-1, with MCF7, in the assay on KM12, in the assay with NCI-H226, in the assay with OVCAR-5 and in the assay on COLO 205 was > 100 µM (inactive) throughout. In addition, the GI50 with DU-145 and in the assay on SF-268 was > 100 µM (inactive) throughout.

Regarding `O=C1c2ccccc2C(=O)c2sc(Nc3ccc([N+](=O)[O-])cc3)nc21`, the GI50 was 23.8 µM (inactive) in the assay on HT-29; 7.91 µM (inactive) in the assay with SF-539; 14.3 µM (inactive) with BT-549; 2.3 µM (inactive) with MDA-MB-231; 13.8 µM (inactive) with HOP-92; 2.54 µM (inactive) with M14. Besides, the GI50 was 2.67 µM (inactive) in the assay with NCI-H23; 6.62 µM (inactive) in the assay on HCT-116; 2.03 µM (inactive) in the assay with LOX IMVI; 6.25 µM (inactive) with Malme-3M; 7.38 µM (inactive) with PC-3; 17.5 µM (inactive) with A549. Besides, the GI50 in the assay on CAKI-1 is 4.25 µM (inactive); in the assay on MCF7, 9.35 µM (inactive); in the assay on KM12, 9.08 µM (inactive); in the assay with NCI-H226, 17.2 µM (inactive); in the assay with OVCAR-5, 13.7 µM (inactive); in the assay with COLO 205, 8.59 µM (inactive). Also, the values for the GI50 in the assay with DU-145 and with SF-268 were 19.2 µM (inactive) and 6.93 µM (inactive), respectively.

As to `C[As](C)SCC(NC(=O)CCC(N)C(=O)O)C(=O)NCC(=O)O.c1ccncc1` (stereo not given), the GI50 in the assay with HT-29 is 0.431 µM (active); in the assay on SF-539, 0.105 µM (active); with BT-549, 0.168 µM (active); in the assay on MDA-MB-231, 0.261 µM (active); in the assay with HOP-92, 0.0843 µM (active); in the assay on M14, 0.22 µM (active). Besides, the GI50 in the assay with NCI-H23 is 0.284 µM (active); with HCT-116, 0.198 µM (active); in the assay on LOX IMVI it was 0.18 µM (active); in the assay on Malme-3M it was 0.0389 µM (active); with PC-3 it was 0.268 µM (active); with A549 it was 0.984 µM (active). Also, the GI50 is 0.0662 µM (active) in the assay with CAKI-1; 0.126 µM (active) with MCF7; 0.361 µM (active) in the assay with KM12; 0.361 µM (active) in the assay on NCI-H226; 0.436 µM (active) in the assay with OVCAR-5; 0.105 µM (active) in the assay on COLO 205. Also, the GI50 with DU-145 was 0.0867 µM (active); with SF-268 it was 0.547 µM (active).

In the case of `COc1nc(N=P(c2ccccc2)(c2ccccc2)c2ccccc2)cc(=O)[nH]1`, the GI50 in the assay on HT-29, in the assay with SF-539, with BT-549, in the assay with MDA-MB-231, in the assay with HOP-92 and with M14 was > 100 µM (inactive) throughout. Also, the GI50 with NCI-H23, in the assay with HCT-116, in the assay with LOX IMVI, with Malme-3M, in the assay with PC-3 and in the assay with A549 was > 100 µM (inactive) throughout. The GI50 in the assay on CAKI-1, in the assay with MCF7, with KM12, in the assay with NCI-H226, in the assay on OVCAR-5 and in the assay on COLO 205 was > 100 µM (inactive) throughout. The GI50 with DU-145 and with SF-268 was > 100 µM (inactive) each time.

In the case of `O=C(O)c1cc(/N=N/c2ccc([N+](=O)[O-])cc2)ccc1O`, the GI50 in the assay on HT-29 was 28.8 µM (inactive); with SF-539 it was 33.3 µM (inactive); in the assay with BT-549, 42.4 µM (inactive); in the assay on MDA-MB-231, 26.9 µM (inactive); in the assay on HOP-92 it was 18 µM (inactive); with M14, 39.4 µM (inactive). Besides, the GI50 with NCI-H23 is 40.2 µM (inactive); with HCT-116, 30.5 µM (inactive); in the assay on LOX IMVI, 39.7 µM (inactive); in the assay on Malme-3M, 42.6 µM (inactive); in the assay on PC-3, 33.7 µM (inactive); in the assay with A549, 32.6 µM (inactive). The GI50 is 29.2 µM (inactive) with CAKI-1; 30.8 µM (inactive) in the assay with MCF7; 33.2 µM (inactive) in the assay on KM12; 17 µM (inactive) with NCI-H226; 30.3 µM (inactive) in the assay with OVCAR-5; 30.8 µM (inactive) in the assay on COLO 205. Moreover, the figures for the GI50 with DU-145 and with SF-268 were 38.3 µM (inactive) and 35.6 µM (inactive), respectively.
